According to patent US11426385B2, “Methods of improving cancer chemotherapy” (THE REGENTS OF THE UNIVERSITY OF CALIFORNIA, priority 2017, dated 2022):

System: COX-1
Assay: COX-1 inhibitory activity (Table 3)
Assay type: biochemical
Design: dose or concentration left out as unconfirmed
Settings: not given

Point of comparison: CC(C)c1cccc(C(C)C)c1NC(=O)NCCCc1cc(-c2ccccc2)n(-c2ccc(S(N)(=O)=O)cc2)n1 [compound 2325, 4-(3-{3-[3-(2,6-Diisopropyl-phenyl)-ureido]-propyl}-5-phenyl-pyrazol-1-yl)-benzenesulfonamide], “COX-1 (% inhibition)” value 6.2%. Against it:
- CS(=O)(=O)c1ccc(-n2nc(CCCNC(=O)Nc3cccc(C(F)(F)F)c3)cc2-c2ccccc2)cc1 [compound 1862, 1-{3-[1-(4-Methanesulfonyl-phenyl)-5-phenyl-1H-pyrazol-3-yl]-propyl}-3-(3-trifluoromethyl-phenyl)-urea] — higher, 6.4%
- CS(=O)(=O)c1ccc(-n2nc(CNC(=O)NC3CCCCCC3)cc2-c2ccccc2)cc1 [compound 2321, 1-Cycloheptyl-3-[1-(4-methanesulfonyl-phenyl)-5-phenyl-1H-pyrazol-3-ylmethyl]-urea] — lower, 3.4%
- NS(=O)(=O)c1ccc(-n2nc(CCCNC(=O)Nc3ccccc3)cc2-c2ccccc2)cc1 [compound 2245, 4-{5-Phenyl-3-[3-(3-phenyl-ureido)-propyl]-pyrazol-1-yl}-benzenesulfonamide] — higher, 15.8%
- NS(=O)(=O)c1ccc(-n2nc(NC(=O)Nc3cccc(C(F)(F)F)c3)cc2-c2ccccc2)cc1 [compound 2121, 4-{5-Phenyl-3-[3-(3-trifluoromethyl-phenyl)-ureido]-pyrazol-1-yl}-benzenesulfonamide] — higher, 33.9%
- CS(=O)(=O)c1ccc(-n2nc(CNC(=O)Nc3cccc(C(F)(F)F)c3)cc2-c2ccccc2)cc1 [compound 1861, 1-[1-(4-Methanesulfonyl-phenyl)-5-phenyl-1H-pyrazol-3-ylmethyl]-3-(3-trifluoromethyl-phenyl)-urea] — higher, 7.8%
- Cc1ccc(-c2cc(CCCNC(=O)Nc3cccc(C(F)(F)F)c3)nn2-c2ccc(S(N)(=O)=O)cc2)cc1 [compound 2152, 4-(5-p-Tolyl-3-{3-[3-(3-trifluoromethyl-phenyl)-ureido]-propyl}-pyrazol-1-yl)-benzenesulfonamide] — higher, 12.1%
- CS(=O)(=O)c1ccc(-n2nc(CNC(=O)Nc3ccc(OC(F)(F)F)cc3)cc2-c2ccccc2)cc1 [compound 2323, 1-[1-(4-Methanesulfonyl-phenyl)-5-phenyl-1H-pyrazol-3-ylmethyl]-3-(4-trifluoromethoxy-phenyl)-urea] — higher, 10.4%
- NS(=O)(=O)c1ccc(-n2nc(CCCNC(=O)NC34CC5CC(CC(C5)C3)C4)cc2-c2ccccc2)cc1 [compound 2326, 4-{3-[3-(3-Adamantan-1-yl-ureido)-propyl]-5-phenyl-pyrazol-1-yl}-benzenesulfonamide] — higher, 6.7%
- NS(=O)(=O)c1ccc(-n2nc(CCCNC(=O)NC3CCCCCC3)cc2-c2ccccc2)cc1 [compound 2247, 4-{3-[3-(3-Cycloheptyl-ureido)-propyl]-5-phenyl-pyrazol-1-yl}-benzenesulfonamide] — higher, 10.2%
- NS(=O)(=O)c1ccc(-n2nc(CCCNC(=O)Nc3cccc(C(F)(F)F)c3)cc2-c2ccccc2)cc1 [compound 2246, 4-(5-Phenyl-3-{3-[3-(3-trifluoromethyl-phenyl)-ureido]-propyl}-pyrazol-1-yl)-benzenesulfonamide] — higher, 27.2%
- CS(=O)(=O)c1ccc(-n2nc(CNC(=O)Nc3ccc(C(F)(F)F)cc3)cc2-c2ccccc2)cc1 [compound 2324, 1-[1-(4-Methanesulfonyl-phenyl)-5-phenyl-1H-pyrazol-3-ylmethyl]-3-(4-trifluoromethyl-phenyl)-urea] — higher, 10.7%
- NS(=O)(=O)c1ccc(-n2nc(CNC(=O)Nc3cccc(C(F)(F)F)c3)cc2-c2ccccc2)cc1 [compound 2107, 4-{5-Phenyl-3-[3-(3-trifluoromethyl-phenyl)-ureidomethyl]-pyrazol-1-yl}-benzenesulfonamide] — higher, 16.9%
- CC(C)(C)c1cc(CNC(=O)Nc2cccc(C(F)(F)F)c2)nn1-c1ccc(S(C)(=O)=O)cc1 [compound 2106, 1-[5-tert-Butyl-1-(4-methanesulfonyl-phenyl)-1H-pyrazol-3-ylmethyl]-3-(3-trifluoromethyl-phenyl)-urea] — lower, 2.4%
- CS(=O)(=O)c1ccc(-n2nc(CNC(=O)NC34CC5CC(CC(C5)C3)C4)cc2-c2ccccc2)cc1 [compound 1860, 1-Adamantan-1-yl-3-[1-(4-methanesulfonyl-phenyl)-5-phenyl-1H-pyrazol-3-ylmethyl]-urea] — higher, 12.7%
- NS(=O)(=O)c1ccc(-n2nc(CCCNC(=O)Nc3ccc(OC(F)(F)F)cc3)cc2-c2ccccc2)cc1 [compound 2329, 4-(5-Phenyl-3-{3-[3-(4-trifluoromethoxy-phenyl)-ureido]-propyl}-pyrazol-1-yl)-benzenesulfonamide] — higher, 13.8%
- NS(=O)(=O)c1ccc(-n2nc(CCCNC(=O)Nc3ccc(Cl)cc3)cc2-c2ccccc2)cc1 [compound 2327, 4-(3-{3-[3-(4-Chloro-phenyl)-ureido]-propyl}-5-phenyl-pyrazol-1-yl)-benzenesulfonamide] — higher, 15.2%
- NS(=O)(=O)c1ccc(-n2nc(CCNC(=O)Nc3cccc(C(F)(F)F)c3)cc2-c2ccccc2)cc1 [compound 2313, 4-(5-Phenyl-3-{2-[3-(3-trifluoromethyl-phenyl)-ureido]-ethyl}-pyrazol-1-yl)-benzenesulfonamide] — higher, 22.0%

System: bladder cancer PDX BL0269
Assay: tumor growth in NSG-PDX bladder cancer mouse model BL0269
Assay type: in vivo, NSG mice
Settings: not given
Procedure: Materials and Supplies. Bladder cancer subject-derived xenograft (PDX) models were provided by The Jackson Laboratory (JAX, Bar Harbor, Me.). […] All experiments utilized PDX models within the first five passages. […] Gemcitabine was purchased from LC Laboratories (Woburn, Mass.). […] The cell lines have not been tested and authenticated by the authors.
PDX bladder cancer. NSG PDX studies were performed at the University of California Davis with IACUC approval. […] Gemcitabine was dissolved in 0.9% saline and administered at a dose of 150 mg/kg (IP, weekly) for 4 weeks. Animal weight and tumor size were measured twice per week. […] The percentage of tumor growth inhibition (TGI) was calculated as follows; 100%×(1−[(V^treated(final day)−V^treated(initial day))/(V^control(final day)−V^control(initial day))]), where V is tumor volume.
Statistics. Data are presented as mean±standard error of the mean (SEM) or mean±standard deviation (SD). Group comparisons were carried out using one-way analysis of variance or Student's t test. Survival analysis was performed using the Kaplan-Meier method. A p value of less than 0.05 was considered statistically significant.

With Nc1ccn([C@@H]2O[C@H](CO)[C@@H](O)C2(F)F)c(=O)n1 [gemcitabine] the tumor growth was “resistant”.

Same assay, conditions: combined with cisplatin 2 mg/kg

With O=C(NC12CC3CC(CC(C3)C1)C2)N[C@H]1CC[C@H](Oc2ccc(C(=O)O)cc2)CC1 [t-AUCB, trans-4-[4-(3-Adamantan-1-yl-ureido)-cyclohexyloxy]-benzoic acid] the “potentiation of cisplatin with respect to inhibiting tumor growth” value was “moderate additive effect”.

System: COX-1 and COX-2
Assay: not given
Settings: cited from earlier work

Point of comparison: CC(=O)Oc1ccccc1C(=O)O [Aspirin, aspirin], “COX-2 (IC50)/COX-1 (IC50) ratio” value 0.32. Against it:
- COc1ccc2c(c1)c(CC(=O)O)c(C)n2C(=O)c1ccc(Cl)cc1 [indomethacin] — higher, 33
